The assay addresses T1, Src kinase (Homo sapiens, UniProt P12931).
T1 construct: purchased Upstate Bioteolnology (sic; Upstate Biotechnology); later HMR stock 27597-019E1 #14-117
The experiment in a line: Phosphorylation assay of Src kinase inhibitors (radiometric, 96 well filter plate). It counts as biochemical. Conditions: duplicates, tested in the range of 400-0.098 µM; 10 µM peptide substrate (FIYGAFKKKKNH2), 5 µM unlabeled ATP, room temperature 30 min; read-out: IC50. As for the experimental part:
The present invention provides novel compounds of Formulae I through XVIII discussed above. The following compounds which fall within Formulae I through XVIII are characterized by structure, IUPAC name and activity using phosphorylation assay for protein tyrosine Src kinase.
Phosphorylation Assay of Src Kinase Inhibitors
The activity of Src kinase was measured in a 96 well plate phosphorylation assay where the transfer of gamma phosphate from ATP to peptide substrate was measured radiometrically. […] Ki values were determined experimentally for some of the inhibitors. The phosphocellulose filter plates (Millipore catalog #MAPH NOB) were prewet prior to the phosphorylation assay by addition of 100 1 per well of 30 mM MES buffer+0.4 mg/ml BSA. After a 20-minute incubation, the buffer was removed completely via a Millipore vacuum manifold. The phosphorylation assay was then set up in the filter plates in a total volume per well of 60 1. The 60 1 consisted of compound (see concentration ranges above), a 1:100 dilution of Src kinase (originally Upstate Bioteolnology, #14-117; later HMR stock 27597-019E1) or assay buffer alone (for no enzyme control wells), 10 M peptide substrate (FIYGAFKKKKNH2), 5 M unlabeled ATP and a 1:500 dilution of P-ATP (New England Nuclear, catalog #NEG-602H, 2000 Ci/mmol). The reaction was mixed and incubated at room temperature for 30 min. The kinase reactions were stopped by addition of 150 mM H3PO4 and incubated for 10 minutes. The filter plate wells were filtered and washed seven times with 200 1 per well of 150 mM H3PO4. Finally, the filter plate was placed into a Packard plate adapter (Packard catalog #600517B), 35 1 of Microscint-20 (Packard catalog #6013621) was added to each well, the plate was sealed (TopSeal A sealers; Packard catalog #6005185) and counted on a Packard TopCount.
T1 sequence (P12931 whole entry): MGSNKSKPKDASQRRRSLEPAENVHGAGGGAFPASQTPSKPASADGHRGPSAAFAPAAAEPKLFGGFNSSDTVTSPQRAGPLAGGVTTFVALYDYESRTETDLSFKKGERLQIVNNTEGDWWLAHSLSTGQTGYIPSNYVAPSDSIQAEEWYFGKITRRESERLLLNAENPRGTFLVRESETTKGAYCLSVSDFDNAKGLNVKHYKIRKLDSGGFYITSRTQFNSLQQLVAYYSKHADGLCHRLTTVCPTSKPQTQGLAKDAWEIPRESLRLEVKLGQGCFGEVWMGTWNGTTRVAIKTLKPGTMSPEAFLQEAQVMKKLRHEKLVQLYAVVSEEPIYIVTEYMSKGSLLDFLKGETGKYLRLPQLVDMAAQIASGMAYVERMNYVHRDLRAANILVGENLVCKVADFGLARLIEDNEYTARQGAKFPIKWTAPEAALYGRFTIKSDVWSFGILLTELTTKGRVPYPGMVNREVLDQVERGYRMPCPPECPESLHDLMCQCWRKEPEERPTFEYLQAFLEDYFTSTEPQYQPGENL
Usually IC50 stands for the concentration that inhibits the measured activity by half. `NC(=O)CNC(=O)c1cc2ccccc2cc1OCCCCNC(=O)[C@@H](N)C(c1ccccc1)c1ccccc1` [Example 39, 3-[[4-[(2(S)-AMINO-3,3-BISPHENYL-1- OXO)PROPYL]AMINO]BUTOXY]- NAPHTHALENE-2-(N-ACETAMIDO)- CARBOXAMIDE]: the IC50 amounted to 1700 nM.
The figure for `NC(=O)CNC(=O)c1cc2ccccc2cc1OCCCCNC(=O)C1(N)Cc2ccccc2C1` [Example 40, 3-[4-[n-[1-OXO-2-(2-AMINOINDAN-2- YL)]ETHYL]-AMINOBUTOXY]- NAPHTHALENE-2-(N- ACETAMIDO)CARBOXAMIDE] is 12000 nM; for `NC(=O)CNC(=O)c1cc2ccccc2cc1OCCCCNC(=O)[C@@H](N)Cc1ccc(F)cc1` [Example 41, 3-[[4-[[2(S)-AMINO-3-(4-FLUORO- PHENYL)-1-OXO]PROPYL]AMINO]- BUTOXY]-NAPHTHALENE-2- (N-ACETAMIDO)CARBOXAMIDE] it is 310 nM; for `NC(=O)CNC(=O)c1cc2ccccc2cc1OCCCCNC(=O)[C@@H](N)Cc1ccc(Cl)cc1` [Example 42, 3-[[4-[(2(S)-AMINO-3-(4-CHLORO- PHENYL)-1-OXO)PROPYL]AMINO]- BUTOXY]-NAPHTHALENE-2- (N-ACETAMIDO)CARBOXAMIDE] it is 880 nM.
In the case of `NC(=O)CNC(=O)c1cc2ccccc2cc1OCCCCNC(=O)[C@@H](N)Cc1c(F)c(F)c(F)c(F)c1F` [Example 43, 3-[[4-[[2(S)-AMINO-3-(2,3,4,5,6- PENTAFLUORO)PHENYL-1-OXO]- PROPYL]AMINO]BUTOXY]- NAPHTHALENE-2- (N-ACETAMIDO)CARBOXAMIDE], the IC50 was 1380 nM.
Then `NC(=O)CNC(=O)c1cc2ccccc2cc1OCCCCNC(=O)[C@@H](N)Cc1csc2ccccc12` [Example 44, 3-[[4-[[2(S)-AMINO-3(BENZOTHIOPHEN- 3-YL)-1-OXO]PROPYL]AMINO]- BUTOXY]-NAPHTHALENE-2- (N-ACETAMIDO)CARBOXAMIDE], with 230 nM; and `NC(=O)CNC(=O)c1cc2ccccc2cc1OCCCCNC(=O)[C@@H](N)Cc1ccc([N+](=O)[O-])cc1` [Example 45, 3-[[4-[[2(S)-AMINO-3(4-NITROPHENYL)- 1-OXO]PROPYL]AMINO]BUTOXY]- NAPHTHALENE-2-(N-ACETAMIDO)- CARBOXAMIDE], with 1470 nM.
In the case of `NC(=O)CNC(=O)c1cc2ccccc2cc1OCCCCNC(=O)[C@@H](N)Cc1ccc(O)c(I)c1` [Example 46, 3-[[4-[[2(S)-AMINO-3(3-IODO-4- HYDROXYPHENYL)-1-OXO]PROPYL]- AMINO]BUTOXY]-NAPHTHALENE-2- (N-ACETAMIDO)CARBOXAMIDE], the IC50 was 310 nM.
On to `NC(=O)CNC(=O)c1cc2ccccc2cc1OCCCCNC(=O)[C@@H](N)Cc1ccccn1` [Example 47, 3-[[4-[[2(S)-AMINO-3(PYRIDIN-2-YL)-1- OXO]PROPYL]AMINO]BUTOXY]- NAPHTHALENE-2-(N-ACETAMIDO)- CARBOXAMIDE], for which the IC50 amounted to 17000 nM.
`NC(=O)CNC(=O)c1cc2ccccc2cc1OCCCCNC(=O)[C@@H](N)Cc1cccnc1` [Example 48, 3-[[4-[[2(S)-AMINO-3-(PYRIDIN-3-YL)-1- OXO]PROPYL]AMINO]BUTOXY]- NAPHTHALENE-2-(N-ACETAMIDO)- CARBOXAMIDE]: the IC50 stood at 9600 nM.
As to `NC(=O)CNC(=O)c1cc2ccccc2cc1OCCCCNC(=O)[C@@H](N)CC1CCCCC1` [Example 49, 3-[[4-[[2(S)-AMINO-3(CYCLOHEXYL)-1- OXO]PROPYL]AMINO]BUTOXY]- NAPHTHALENE-2-(N-ACETAMIDO)- CARBOXAMIDE], the IC50 was 920 nM.
The figure for `NC(=O)CNC(=O)c1cc2ccccc2cc1OCCCCNC(=O)[C@@H](N)C1CCCCC1` [Example 50, 3-[[[4-(2(S)-AMINO-2-CYCLOHEXYL-1- OXO)ETHYL]AMINO]BUTOXY]- NAPHTHALENE-2-(N-ACETAMIDO)- CARBOXAMIDE] is 2000 nM.
For the compound `NC(=O)CNC(=O)c1cc2ccccc2cc1OCCCCNC(=O)[C@@H](N)Cc1csc2ccccc12` [Example 51, 3-[[4-[[2(S)-AMINO-3-(BENZO- THIOPHEN-3-YL)-1-OXO]PROPYL]- AMINO]BUTOXY]-NAPHTHALENE-2- (N-ACETAMIDO)CARBOXAMIDE], the IC50 was 100 nM.
The figure for `NC(=O)CNC(=O)c1cc2ccccc2cc1OCCCCNC(=O)C(N)C1Cc2ccccc2C1` (stereo not drawn) [Example 52, 3-[4-[N-[1-OXO-2-AMINO-2-(INDAN-2- YL)]ETHYL]-AMINOBUTOXY]- NAPHTHALENE-2-(N-ACETAMIDO)- CARBOXAMIDE] is 1560 nM.
Then `NC(=O)CNC(=O)c1cc2ccccc2cc1OCCCCNC(=O)[C@H](N)Cc1ccccc1` [Example 53, 3-[4-[[[2(R)-AMINO-3-PHENYL-1- OXO]PROPYL]AMINO]BUTOXY]- NAPHTHALENE-2-(N-ACETAMIDO)- CARBOXAMIDE], with 1400 nM; and `NC(=O)CNC(=O)c1cc2ccccc2cc1OCCCCNC(=O)[C@@H](N)Cc1ccc(O)c([N+](=O)[O-])c1` [Example 54, 3-[4-[[[2(S)-AMINO-3-(3-NITRO-4- HYDROXY)PHENYL-1-OXO]PROPYL]- AMINO]BUTOXY]-NAPHTHALENE-2- (N-ACETAMIDO)CARBOXAMIDE], with 660 nM.
On to `NC(=O)CNC(=O)c1cc2ccccc2cc1OCCCCNC(=O)[C@@H](N)Cc1cccs1` [Example 55, 3-[4-[[[2(S)-AMINO-3-(THIOPHEN-2-YL)- 1-OXO]PROPYL]AMINO]BUTOXY]- NAPHTHALENE-2-(N-ACETAMIDO)- CARBOXAMIDE], for which the IC50 is 1350 nM.
The figure for `NC(=O)CNC(=O)c1cc2ccccc2cc1OCCCCNC(=O)[C@H](N)Cc1ccc(O)cc1` [Example 56, 3-[4-[[[2(R)-AMINO-3-(4-HYDROXY- PHENYL-1-OXO]PROPYL]AMINO]- BUTOXY]-NAPHTHALENE-2-(N- ACETAMIDO)CARBOXAMIDE] is 50000 nM.
For `NC(=O)CNC(=O)c1cc2ccccc2cc1OCCCCNC(=O)[C@@H](N)Cc1cccc2ccccc12` [Example 57, 3-[4-[[[2(S)-AMINO-3-(NAPHTH-1-YL)-1- OXO]PROPYL]AMINO]BUTOXY]- NAPHTHALENE-2-(N-ACETAMIDO)- CARBOXAMIDE], the IC50 was determined as 370 nM.
As for `NC(=O)CNC(=O)c1cc2ccccc2cc1OCCCCNC(=O)[C@@H](N)Cc1cccc(F)c1` [Example 59, 3-[4-[[[2(S)-AMINO-3-(3-FLUORO- PHENYL)-1-OXO]PROPYL]AMINO]- BUTOXY]-NAPHTHALENE-2-(N- ACETAMIDO)CARBOXAMIDE], the IC50 is 490 nM.
With `CC(c1ccc(Cl)c(Cl)c1)[C@H](N)C(=O)NCCCCOc1cc2ccccc2cc1C(=O)NCC(N)=O` (stereo partly drawn) [Example 60, 3-[4-[[[2(S)-AMINO-3(3,4-DICHLORO- PHENYL)-1-OXO]BUTYL]AMINO]- BUTOXY]-NAPHTHALENE-2-(N- ACETAMIDO)CARBOXAMIDE], the IC50 worked out at 1560 nM.
The figure for `NC(=O)CNC(=O)c1cc2ccccc2cc1OCCCCNC(=O)[C@@H](N)Cc1ccc(Br)cc1` [Example 61, 3-[4-[[[1-OXO-2(S)-AMINO-3(4- BROMOPHENYL)]PROPYL]AMINO]- BUTOXY]-NAPHTHALENE-2-(N- ACETAMIDO)CARBOXAMIDE] is 500 nM; for `NC(=O)CNC(=O)c1cc2ccccc2cc1OCCCCNC(=O)[C@@H](N)Cc1ccc(I)cc1` [Example 62, 3-[4-[[[1-OXO-2(S)-AMINO-3(4- IODOPHENYL)]PROPYL]AMINO]- BUTOXY]-NAPHTHALENE-2-(N- ACETAMIDO)CARBOXAMIDE] it is 6250 nM.
With `NC(=O)CNC(=O)c1cc2ccccc2cc1OCCCCNC(=O)[C@H](N)CSCc1ccccc1` [Example 63, 3-[4-[[[1-OXO-2(S)-AMINO- 3(BENZYLMERCAPTO)]PROPYL]- AMINO]BUTOXY]-NAPHTHALENE-2- (N-ACETAMIDO)CARBOXAMIDE], the IC50 turned out to be 2230 nM.
Regarding `NCC(=O)NCCCCOc1cc2ccccc2cc1C(=O)NCC(N)=O` [Example 64, 3-[4-[[(1-OXO-2-AMINO)ETHYL]- AMINO]BUTOXY]-NAPHTHALENE-2- (N-ACETAMIDO)CARBOXAMIDE], the IC50 came to 68000 nM.
For the compound `C[C@H](N)C(=O)NCCCCOc1cc2ccccc2cc1C(=O)NCC(N)=O` [Example 65, 3-[4-[[(1-OXO-2(S)-AMINO)PROPYL]- AMINO]BUTOXY]-NAPHTHALENE-2- (N-ACETAMIDO)CARBOXAMIDE], the IC50 was 101000 nM.
Then `CC(C)(C)C(=O)NCCCCOc1cc2ccccc2cc1C(=O)NCC(N)=O` [Example 66, 3-[4-[[(1-OXO-2,2-DIMETHYL)PROPYL]- AMINO]BUTOXY]-NAPHTHALENE-2- (N-ACETAMIDO)CARBOXAMIDE], with 6000 nM.
Then `CN[C@@H](Cc1ccccc1)C(=O)NCCCCOc1cc2ccccc2cc1C(=O)NCC(N)=O` [Example 67, 3-[4-[[(1-OXO-2(S)-METHYLAMINO-3- PHENYL)PROPYL]AMINO]BUTOXY]- NAPHTHALENE-2-(N-ACETAMIDO)- CARBOXAMIDE], with 2300 nM.
The figure for `CN(C)[C@@H](Cc1ccccc1)C(=O)NCCCCOc1cc2ccccc2cc1C(=O)NCC(N)=O` [Example 68] is 50000 nM; for `C[N+](C)(C)[C@@H](Cc1ccccc1)C(=O)NCCCCOc1cc2ccccc2cc1C(=O)NCC(N)=O` [Example 69] it is 14000 nM.
